Reference: patent US12065416B2, “cGAS antagonist compounds” (IMMUNESENSOR THERAPEUTICS, INC., priority 2016, dated 2024)

Assays:
[1] = test system: cGAS activity in THP1 cells; assay: Cellular assay: ISRE-Gaussia luciferase reporter THP1 cells transfected with ISD (Interferon Stimulatory DNA); type: cell-based; conditions: Homo sapiens, THP-1; ISRE-Gaussia luciferase reporter THP1 cells transfected with 2 μg/mL ISD, 16 hours; read-out: THP1-ISD (Inhibition of cGAS activity in THP1 cells, IC50)
Description: (§1) A reporter THP1 cell line harboring a gene encoding Gaussia Luciferase under the control of 5 tandem repeats of interferon-stimulated response elements (ISRE) was used to test inhibition of cGAS activity by synthetic compounds in human cells. These cells were plated on 96-well plates at 0.3×10^6/well and incubated with various concentrations of compounds or DMSO for 5 min, followed by transfection of 2 μg/mL of ISD (Interferon Stimulatory DNA, a 45 bp DNA oligo) or mock transfected using lipofectamine 2000 (Life Technology) method, according to manufacturer's instructions. 16 hours later, 15 μL of the media from each well is transferred to a new plate, 50 μL of solution containing 50 mM Hepes-NaOH, 50 mM NaCl, 10 mM EDTA, 1 μM of coeleanterazine was added to each well and luminescence was measured immediately. Fold increase in luminescence compared to mock transfection is plotted against concentrations of each compound, and IC50 is calculated using Graphpad. To evaluate the specificity of a compound, the same procedure was performed except that cells were transfected with 2 μg/mL poly(I:C) or infected with Sendai Virus (SeV) at 50 Unit/mL, which are known to activate the RIG-I-MAVS pathway. A specific inhibitory compound should inhibit interferon induction by DNA but have minimal effect on poly(I:C) or Sendai virus induced interferon reporter gene expression.

[2] = test system: RIG-I-MAVS pathway; assay: Specificity assay: ISRE reporter THP1 cells infected with Sendai Virus (SeV); type: cell-based; conditions: Homo sapiens, THP-1; ISRE-Gaussia luciferase reporter THP1 cells infected with Sendai Virus (SeV) at 50 Unit/mL
Description: as §1

[3] = target: T1, recombinant cGAS (aa147-522) (Homo sapiens, UniProt Q8N884); assay: In vitro assay for inhibition of cGAS activity (ATP consumption, Kinase Glo); type: biochemical; conditions: 37° C. 20 minutes, read-out: Activity (Inhibition of cGAS enzyme activity in vitro, IC50)
T1 construct: recombinant cGAS (aa147-522); His6-SUMO (N, cleaved yes); made in house; host or cells: E. coli BL21/pLys
How it was run: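 Human cGAS (aa147-522) at 1.5 ng/μL incubated with serially diluted compound at 37° C for 20 min; remaining ATP read by Kinase Glo luminescence. IC50 from percent ATP consumption plotted against log compound concentration.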

T1 sequence (Q8N884 147-522): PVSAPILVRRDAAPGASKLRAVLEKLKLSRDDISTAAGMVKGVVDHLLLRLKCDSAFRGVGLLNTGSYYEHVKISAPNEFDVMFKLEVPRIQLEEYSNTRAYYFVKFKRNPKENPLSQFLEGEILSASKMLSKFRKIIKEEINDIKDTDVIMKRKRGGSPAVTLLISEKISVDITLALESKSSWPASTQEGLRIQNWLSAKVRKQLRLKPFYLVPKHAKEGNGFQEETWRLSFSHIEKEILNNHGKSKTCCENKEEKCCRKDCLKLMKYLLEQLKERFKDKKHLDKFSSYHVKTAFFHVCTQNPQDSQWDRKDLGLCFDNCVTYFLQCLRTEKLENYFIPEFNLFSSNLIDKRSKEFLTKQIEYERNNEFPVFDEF

SMILES | IC50 [1] [µM] | IC50 [2] [µM] | IC50 [3] [µM]
COc1cc(/C=C2\SC(=O)N(C)C2=O)c(Br)c(F)c1O [Ex63] | 2.5 to 10 | ≥ 10 | ≤ 0.5
C[S+]([O-])c1ncc(COc2cc(/C=C3\Sc4ncccc4C3=O)c(Br)c(F)c2O)cn1 (stereo not drawn) [ExA15] | 2.5 to 10 | ≥ 10 | 0.5 to 10
COc1cc(/C=C2\Sc3ncccc3C2=O)c(Br)c(F)c1O [Ex75] | 2.5 to 10 | ≥ 10 | ≤ 0.5
O=C1/C(=C/c2cc(OCc3cnc(NCCO)nc3)c(O)cc2Br)Sc2ncccc21 [Ex196] | ≤ 2.5 | ≥ 10 | ≤ 0.5
CN1C(=O)S/C(=C\c2cc(OCc3cncnc3)c(O)cc2Br)C1=O [Ex140] | ≤ 2.5 | ≥ 10 | ≤ 0.5
C[S+]([O-])c1ncc(COc2cc(/C=C3\Sc4ncccc4C3=O)c(Br)cc2O)cn1 (stereo not drawn) [Ex216] | ≤ 2.5 | 2.5 to 10 | ≤ 0.5
CN1C(=O)S/C(=C\c2cc(OCc3cnc(N)nc3)c(Oc3cnc(N)s3)cc2Br)C1=O [Ex211] | 2.5 to 10 | ≥ 10 | 0.5 to 10
Nc1ncc(COc2cc(/C=C3\Sc4ncccc4C3=O)c(Br)cc2O)cn1 [Ex194] | ≤ 2.5 | ≥ 10 | ≤ 0.5
CN1C(=O)S/C(=C\c2cc(OCc3cn[nH]c3)c(O)cc2Br)C1=O [Ex92] | ≤ 2.5 | ≥ 10 | ≤ 0.5
CN1C(=O)S/C(=C\c2cc(O/C=C/c3cnc(N)nc3)c(O)c(F)c2Br)C1=O [ExB2] | ≤ 2.5 | ≥ 10 | ≤ 0.5
CNc1ncc(COc2cc(/C=C3\Sc4ncccc4C3=O)c(Br)c(F)c2O)cn1 [ExA1] | 2.5 to 10 | ≥ 10 | ≤ 0.5
COc1cc(/C=C2\SC(=O)N(C)C2=O)c(Br)cc1O [Ex28] | ≤ 2.5 | ≥ 10 | ≤ 0.5
CN1C(=O)S/C(=C\c2cc(OC(F)(F)F)c(O)cc2Br)C1=O [Ex57] | ≤ 2.5 | 2.5 to 10 | 0.5 to 10
COCCNc1ncc(COc2cc(/C=C3\SC(=O)N(C)C3=O)c(Br)c(F)c2O)cn1 [Ex153] | 2.5 to 10 | ≥ 10 | ≤ 0.5
CNc1ncc(COc2cc(/C=C3\SC(=O)N(C)C3=O)c(Br)cc2O)cn1 [Ex148] | ≤ 2.5 | ≥ 10 | ≤ 0.5
O=C1/C(=C/c2cc(OCc3cnc(NCc4ccccn4)nc3)c(O)c(F)c2Br)Sc2ncccc21 [ExA2] | ≥ 10 | ≥ 10 | ≤ 0.5
O=C1/C(=C/c2cc(OCc3cnc(NCc4cccnc4)nc3)c(O)c(F)c2Br)Sc2ncccc21 [ExA3] | 2.5 to 10 | ≥ 10 | ≤ 0.5
Nc1ncncc1COc1cc(/C=C2\Sc3ncccc3C2=O)c(Br)cc1O [Ex73] | 2.5 to 10 | ≥ 10 | ≤ 0.5
CN1C(=O)S/C(=C\c2cc3c(Cc4cnc(N)nc4)c[nH]c3c(F)c2Br)C1=O [ExB43] | ≥ 10 | ≥ 10 | ≤ 0.5
CC(Oc1cc(/C=C2\Sc3ncccc3C2=O)c(Br)cc1O)c1cnc(N)nc1 (stereo not drawn) [Ex122] | ≤ 2.5 | ≥ 10 | ≤ 0.5
CN1C(=O)S/C(=C\c2cc(OCc3cnc(NC4CC4)nc3)c(O)cc2Br)C1=O [Ex149] | ≤ 2.5 | ≥ 10 | 0.5 to 10
CN1C(=O)S/C(=C\c2cc(OCc3cnc4ccccc4c3)c(O)cc2Br)C1=O [Ex177] | 2.5 to 10 | ≥ 10 | 0.5 to 10
Cc1ncc(COc2cc(/C=C3\Sc4ncccc4C3=O)c(Br)c(F)c2O)cn1 [ExA4] | ≤ 2.5 | ≥ 10 | ≤ 0.5
CN1C(=O)S/C(=C\c2cc(OCc3ccc(N)nc3)c(O)cc2Br)C1=O [Ex131] | 2.5 to 10 | 2.5 to 10 | 0.5 to 10
CN1C(=O)S/C(=C\c2cc(OCc3cnc(N)nc3)c(O)c(F)c2Br)C1=O [Ex81] | ≤ 2.5 | ≥ 10 | ≤ 0.5
CN1C(=O)S/C(=C\c2cc(OCc3cnc(NCCO)nc3)c(O)c(F)c2Br)C1=O [Ex152] | ≤ 2.5 | ≥ 10 | ≤ 0.5
CN1C(=O)S/C(=C\c2cc(Oc3ccc(N)nc3)c(O)cc2Br)C1=O [Ex234] | 2.5 to 10 | ≥ 10 | ≥ 10

SMILES | IC50 [1] [µM] | IC50 [2] [µM] | IC50 [3] [µM]
CN1C(=O)S/C(=C\c2cc(OCc3cnc(Cl)nc3)c(O)cc2Br)C1=O [Ex93] | 2.5 to 10 | ≥ 10 | ≤ 0.5
CC(C)C(=O)N1CCC(COc2cc(/C=C3\SC(=O)N(C)C3=O)c(Br)cc2O)CC1 [Ex87] | 2.5 to 10 | ≥ 10 | 0.5 to 10
CNc1ncc(COc2cc(/C=C3\Sc4ncccc4C3=O)c(Br)cc2O)cn1 [Ex195] | 2.5 to 10 | ≥ 10 | ≤ 0.5
COCCNc1ncc(COc2cc(/C=C3\Sc4ncccc4C3=O)c(Br)cc2O)cn1 [Ex197] | 2.5 to 10 | ≥ 10 | ≤ 0.5
CN1C(=O)S/C(=C\c2cc(OCc3cnc(NN)nc3)c(O)cc2Br)C1=O [Ex184] | ≤ 2.5 | ≥ 10 | ≤ 0.5
COc1cc(/C=C2\SC(=O)N(C)C2=O)c(I)cc1O [Ex65] | 2.5 to 10 | ≥ 10 | ≤ 0.5
CN1C(=O)S/C(=C\c2cc(OCc3cnc[nH]3)c(O)cc2Br)C1=O [Ex137] | 2.5 to 10 | ≥ 10 | 0.5 to 10
CCC(Oc1cc(/C=C2\SC(=O)N(C)C2=O)c(Br)c(F)c1O)c1cnc(N)nc1 (stereo not drawn) [ExB44] | 2.5 to 10 | ≥ 10 | ≤ 0.5
CN1C(=O)S/C(=C\c2cc(OCCc3cnc(N)nc3)c(O)c(F)c2Br)C1=O [ExB3] | ≤ 2.5 | ≥ 10 | ≤ 0.5
Cc1nc(N)ncc1COc1cc(/C=C2\SC(=O)N(C)C2=O)c(Br)c(F)c1O [Ex108] | ≤ 2.5 | ≥ 10 | ≤ 0.5
CN1C(=O)S/C(=C\c2cc(OCc3cncnc3N)c(O)cc2Br)C1=O [Ex141] | ≤ 2.5 | ≥ 10 | ≤ 0.5
Nc1ncc(COc2cc(/C=C3\Sc4ncccc4C3=O)c(Br)c(F)c2O)cn1 [Ex123] | ≤ 2.5 | ≥ 10 | ≤ 0.5
CN1C(=O)S/C(=C\c2cc(OCC3CCCCC3)c(O)cc2Br)C1=O [Ex86] | 2.5 to 10 | 2.5 to 10 | 0.5 to 10
CN1C(=O)S/C(=C\c2cc(OCc3cnc([S+](C)[O-])nc3)c(O)cc2Br)C1=O (stereo not drawn) [Ex213] | 2.5 to 10 | ≥ 10 | ≤ 0.5
O=C1/C(=C/c2cc(CC(F)(F)F)c(O)cc2Br)Sc2ncccc21 [ExB21] | 2.5 to 10 | ≥ 10 | ≤ 0.5
CN1C(=O)S/C(=C\c2cc(OCc3cnc(N)nc3)c(O)cc2Br)C1=O [Ex147] | ≤ 2.5 | ≥ 10 | ≤ 0.5
CN1C(=O)S/C(=C\c2cc(OCc3cnc(NCc4ccccn4)nc3)c(O)cc2Br)C1=O [Ex155] | 2.5 to 10 | ≥ 10 | ≤ 0.5
O=C1/C(=C/c2cc(OC(F)(F)F)c(O)cc2Br)Sc2ncccc21 [Ex70] | 2.5 to 10 | ≥ 10 | 0.5 to 10
CC(Oc1cc(/C=C2\SC(=O)N(C)C2=O)c(Br)c(F)c1O)c1cnc(Cl)nc1 (stereo not drawn) [ExA6] | 2.5 to 10 | 2.5 to 10 | ≤ 0.5
CN1C(=O)S/C(=C\c2cc(OCc3cnc(N)nc3C3CC3)c(O)cc2Br)C1=O [Ex171] | 2.5 to 10 | ≥ 10 | ≤ 0.5
CN1C(=O)S/C(=C\c2cc(OCc3ncc(N)cn3)c(O)cc2Br)C1=O [Ex139] | 2.5 to 10 | ≥ 10 | 0.5 to 10
CC(C)n1ccc(COc2cc(/C=C3\SC(=O)N(C)C3=O)c(Br)cc2O)cc1=O [Ex135] | 2.5 to 10 | ≥ 10 | 0.5 to 10
CC(Oc1cc(/C=C2\SC(=O)N(C)C2=O)c(Br)c(F)c1O)C(O)c1cnc(N)nc1 (stereo not drawn) [ExB4] | ≥ 10 | ≥ 10 | ≤ 0.5
CN1C(=O)S/C(=C\c2cc(OCc3cnc(NCc4cccnc4)nc3)c(O)cc2Br)C1=O [Ex156] | 2.5 to 10 | ≥ 10 | ≤ 0.5
O=C1/C(=C/c2cc(OCc3cncnc3)c(O)cc2Br)Sc2ncccc21 [Ex193] | 2.5 to 10 | ≥ 10 | ≤ 0.5
CC(Oc1cc(/C=C2\SC(=O)N(C)C2=O)c(Br)cc1O)c1cncnc1N (stereo not drawn) [Ex80] | 2.5 to 10 | ≥ 10 | ≤ 0.5
